Measured values: patent US11174253B2, “Compound and pharmaceutical composition containing the same” (ALPHALA CO., LTD., priority 2017, dated 2021)

These compounds were tested on hepatocellular carcinoma cell line Hep3B (assay: Growth inhibition of Hep3B cells, 48 hr treatment, Hoechst 33342 nucleus count (GE InCell 2200)). Conditions: Homo sapiens, Table 6, ratio of number of tumor cells treated with 10 μM compound to non-treated cells.
Assay type: cell-based
Procedure, shortened: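 Compound exposure lasted 48 hr at 37° C, 5% CO2. Surviving nuclei were counted after Hoechst 33342 staining, and survival was expressed as the treated/non-treated cell number ratio, including the ratio at 10 μM compound.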
`O=C(Nc1nc(-c2ccc(Br)cc2)c(-c2ccccc2)s1)c1ccc([N+](=O)[O-])s1` [Compound 6-9, N-(4-(4-bromophenyl)-5-phenylthiazol-2-yl)-5-nitrothiophene-2-carboxamide] gave a viability at 10 µM of 71%.
Work on `O=C(Nc1nc(-c2ccc(Br)cc2)c(Br)s1)c1ccc([N+](=O)[O-])s1` [Compound 6-10, N-(5-bromo-4-(4-bromophenyl)thiazol-2-yl)-5-nitrothiophene-2-carboxamide] yielded a viability at 10 µM of 50%.
For `O=C(Nc1nc(-c2ccccc2[N+](=O)[O-])cs1)c1ccc([N+](=O)[O-])s1` [Compound 6-11, 5-nitro-N-(4-(2-nitrophenyl)thiazol-2-yl)thiophene-2-carboxamide], the viability at 10 µM was 62%.
In the case of `O=C(Nc1nc(-c2ccccc2[N+](=O)[O-])c(Br)s1)c1ccc([N+](=O)[O-])s1` [Compound 6-12, N-(5-bromo-4-(2-nitrophenyl)thiazol-2-yl)-5-nitrothiophene-2-carboxamide], the viability at 10 µM is reported as 67%.
`O=C(Nc1nc(-c2cccc([N+](=O)[O-])c2)c(Br)s1)c1ccc([N+](=O)[O-])s1` [Compound 6-13, N-(5-bromo-4-(3-nitrophenyl)thiazol-2-yl)-5-nitrothiophene-2-carboxamide] gave a viability at 10 µM of 81%.
Compound `COc1cccc(-c2nc(NC(=O)c3ccc([N+](=O)[O-])s3)sc2Br)c1` [Compound 6-14, N-(5-bromo-4-(3-methoxyphenyl)thiazol-2-yl)-5-nitrothiophene-2-carboxamide] has a viability at 10 µM of 83%.
Compound `CCOc1ccc(-c2nc(NC(=O)c3ccc([N+](=O)[O-])s3)sc2-c2ccc(F)cc2)cc1` [Compound 6-15, N-(4-(4-ethoxyphenyl)-5-(4-fluorophenyl)thiazol-2-yl)-5-nitrothiophene-2-carboxamide] has a viability at 10 µM of 64%.
With `CCOc1ccc(-c2nc(NC(=O)c3ccc([N+](=O)[O-])s3)sc2Br)cc1` [Compound 6-17, N-(5-bromo-4-(4-ethoxyphenyl)thiazol-2-yl)-5-nitrothiophene-2-carboxamide] the viability at 10 µM was 53%.
Work on `CCOc1ccc(-c2nc(NC(=O)c3ccc([N+](=O)[O-])s3)sc2-c2ccc(C(F)(F)F)cc2)cc1` [Compound 6-19, N-(4-(4-ethoxyphenyl)-5-(4-(trifluoromethyl)phenyl)thiazol-2-yl)-5-nitrothiophene-2-carboxamide] yielded a viability at 10 µM of 26%.
In the case of `CCOc1cc(-c2sc(NC(=O)c3ccc([N+](=O)[O-])s3)nc2-c2ccc(C)cc2)ccc1Br` [Compound 6-20, N-(5-(4-bromo-3-ethoxyphenyl)-4-(p-tolyl)thiazol-2-yl)-5-nitrothiophene-2-carboxamide], the viability at 10 µM is reported as 45%.
`CCCOc1ccc(-c2nc(NC(=O)c3ccc([N+](=O)[O-])s3)sc2N2CCN(C)CC2)cc1` [Compound 6-22, N-(5-(4-methylpiperazin-1-yl)-4-(4-propoxyphenyl)thiazol-2-yl)-5-nitrothiophene-2-carboxamide] was tested, and the viability at 10 µM was 29%.
With `CCCOc1ccc(-c2nc(NC(=O)c3ccc([N+](=O)[O-])s3)sc2C(=O)OCC)cc1` [Compound 6-23, ethyl 2-(5-nitrothiophene-2-carboxamido)-4-(4-propoxyphenyl)thiazole-5-carboxylate] the viability at 10 µM was 33%.
Work on `CCOc1ccc(-c2nc(NC(=O)c3ccc([N+](=O)[O-])s3)sc2C(=O)Nc2cc(F)cc(F)c2)cc1` [Compound 6-27, N-(3,5-difluorophenyl)-4-(4-ethoxyphenyl)-2-(5-nitrothiophene-2-carboxamido)thiazole-5-carboxamide] yielded a viability at 10 µM of 36%.
`CCOc1ccc(-c2nc(NC(=O)c3ccc([N+](=O)[O-])s3)sc2N(C)c2ccccc2)cc1` [Compound 6-28, N-(4-(4-ethoxyphenyl)-5-(methyl (phenyl)amino)thiazol-2-yl)-5-nitrothiophene-2-carboxamide] showed a viability at 10 µM of 31%.
`CCCOc1ccc(-c2nc(NC(=O)c3ccc([N+](=O)[O-])s3)sc2C(=O)N2CCOCC2)cc1` [Compound 6-29, N-(5-(morpholine-4-carbonyl)-4-(4-propoxyphenyl)thiazol-2-yl)-5-nitrothiophene-2-carboxamide] showed a viability at 10 µM of 58%.
